Values quoted from earlier work, collected in US20210298340A1, “Cannabis-Infused Product with Extended Cannabinoid Profile User Experience” (HEXO Operations Inc., priority 2018, published 2021).
Where two headings read alike, the source gives them in different places.

How the values were obtained:
[1] = tested on: skin; settings: 3 macro-emulsions >1000 nm and 3 nano-emulsions <100 nm
[2] = rats; solution in MCT oil or emulsion with droplet size 160 nm or 710 nm
[3] = dogs; emulsion with droplet size 119 nm or 52 nm

In the case of `CCCCNc1ccc(C(=O)OCCN(C)C)cc1` [tetracaine], the “influence of emulsion droplet size on in vitro dermal and transdermal skin penetration” value [1] is given as “no influence”.
In the case of `COc1nc(C(Cl)(Cl)Cl)c(Cl)c(OC)c1Cl` [penclomedine], the bioavailability [2] is given as “comparable”.
In the case of `CCCCN(CCCC)CCC(O)c1cc2c(Cl)cc(Cl)cc2c2cc(C(F)(F)F)ccc12` (stereo not drawn) [halofantrine], the bioavailability [3] is given as “comparable”.
